According to patent US10487056B2, “Small molecule androgen receptor inhibitors and methods of use thereof” (GEORGETOWN UNIVERSITY, priority 2015, dated 2019):

Assays:
Format in all cases: cell-based
22Rv1 cells [1] = assay: Cleaved caspase-3 and cleaved PARP by Western blot and immunofluorescence, 22Rv1 cells; details: SH-I-125 1 μM, three days
Experimental: (§1) 22Rv1 cells were treated with SH-I-125 (1 μM) for one, two, or three days, and caspase 3/7 activity was measured using Caspase-Glo 3/7 substrates. […] Data represent mean of three independent experiments with quadruplicate samples; bars, SEM. ***, p value <0.001 determined by ANOVA.
The presence of cleaved caspase-3 and cleaved PARP were determined. The cells were counterstained with 4′,6-diamidino-2-phenylindole (DAPI).
Western blotting was performed as described in Amin et al., Mol. Cancer Ther., 13:341-52 (2014). The following antibodies were used: Androgen receptor (N-20; Santa Cruz Biotechnology; Dallas, Tex.), PSA (A0562; Dako; Carpinteria, Calif.), β-actin (SC-47778; Santa Cruz Biotechnology), AR-V7 (AG10008; Precision Antibody; Columbia, Md.), cleaved PARP (9541; Cell Signaling Technologies, Danvers, Mass.), and cleaved caspase-3 (9664; Cell Signaling Technologies, Danvers, Mass.).
It was determined whether caspase activity and apoptosis were induced in 22Rv1 cells upon SH-I-125 treatment. […] Staurosporine was used as a positive control for apoptosis induction (FIG. 10B).

AR and AR-V7 = assay: Quantitative RT-PCR of AR and AR-V7 mRNA in 22Rv1 cells; details: SH-I-125 1 μM, 1-3 days, normalized to GAPDH
Experimental: FIG. 12D is a graph showing the mRNA expression of AR and AR-V7 after treating 22Rv1 cells with SH-I-125 (1 μM) for 24 and 72 hrs. The AR and AR-V7 expression levels were assessed by qRTPCR and normalized to GAPDH expression levels.
Quantitative RT-PCR was performed using the protocol and the primers as described in Amin et al., Mol. Cancer Ther., 13:341-52 (2014).
To establish a mechanism by which SH-I-125 caused a decline in AR and AR-V7 levels, the relative expression of AR and AR-V7 in 22Rv1 cells that had been treated with SH-I-125 for a period of 1-3 days was measured. […] To determine whether proteasomal mechanisms are responsible for the decline in AR and AR-V7 levels, 22Rv1 cells were treated with 5 μM SH-I-125 for a period of 48 hours in the presence of proteasome inhibitor, MG132.

AR [2] = biological target: T1, AR (Homo sapiens, UniProt P10275); assay: Immunofluorescence staining and Western blot of AR and PSA in VCaP cells; details: DHT 1 nM, MDV3100 10 μM or SH-I-125 1 μM, 24 hours
T1 construct: Androgen-dependent VCaP cells were made to stably express an androgen-response element luciferase reporter (VCaP-ARE-luc); host or cells: VCaP / VCaP-ARE-luc
T1 sequence (P10275 1-920): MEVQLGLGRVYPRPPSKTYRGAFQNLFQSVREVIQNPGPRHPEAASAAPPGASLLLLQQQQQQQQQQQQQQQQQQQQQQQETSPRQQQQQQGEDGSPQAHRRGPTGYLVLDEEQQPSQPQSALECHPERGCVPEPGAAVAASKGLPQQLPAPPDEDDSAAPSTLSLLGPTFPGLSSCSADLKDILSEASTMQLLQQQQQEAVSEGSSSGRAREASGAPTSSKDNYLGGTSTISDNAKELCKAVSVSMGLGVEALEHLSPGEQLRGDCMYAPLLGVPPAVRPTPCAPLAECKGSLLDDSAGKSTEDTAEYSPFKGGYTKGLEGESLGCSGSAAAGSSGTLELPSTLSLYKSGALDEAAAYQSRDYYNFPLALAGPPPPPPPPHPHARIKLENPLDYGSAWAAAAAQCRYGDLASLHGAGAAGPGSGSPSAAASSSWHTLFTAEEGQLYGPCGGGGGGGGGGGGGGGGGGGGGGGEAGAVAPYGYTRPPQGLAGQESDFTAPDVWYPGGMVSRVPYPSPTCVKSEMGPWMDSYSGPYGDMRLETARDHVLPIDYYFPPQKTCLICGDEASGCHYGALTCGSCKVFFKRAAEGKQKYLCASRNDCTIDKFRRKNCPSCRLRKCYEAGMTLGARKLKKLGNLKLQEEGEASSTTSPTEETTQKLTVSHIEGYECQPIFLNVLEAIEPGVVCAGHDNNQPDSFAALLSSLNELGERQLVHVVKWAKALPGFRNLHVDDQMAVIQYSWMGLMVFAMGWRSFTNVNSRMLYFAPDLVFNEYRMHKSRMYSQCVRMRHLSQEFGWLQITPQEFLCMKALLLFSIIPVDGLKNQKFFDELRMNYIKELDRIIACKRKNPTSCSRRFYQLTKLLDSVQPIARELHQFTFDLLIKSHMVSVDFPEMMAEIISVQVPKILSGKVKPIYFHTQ
Experimental: Androgen receptor (AR) and PSA expression levels were assessed.
AR and PSA expression levels were assessed. B-actin was used as a loading control.

22Rv1 cells [3] = assay: MTT cell viability assay, 22Rv1 cells; details: 3 days
Experimental: Cells were treated in the manner indicated below for the specified period of time. MTT assay was performed as described in Amin et al., Mol. Cancer Ther., 13:341-52 (2014).
To determine the effects of SH-I-125 on prostate cancer cell growth, 22Rv1 cells were treated with SH-I-125 and cell viability was measured after a period of 3 days. […]. In comparison, non-tumorigenic primary prostate epithelial cells (PrEC) retained 80% viability in the presence of a similar range of doses of SH-I-125, showing that tumorigenic cells are more susceptible to the growth inhibitory properties of SH-I-125 compared to non-tumorigenic cells (FIG. 8B). […] Staurosporine was used as a positive control for cell death induction in live and dead assays (FIG. 9C).

AR [4] = assay: 22Rv1-MDVR-ARE-luc luciferase reporter assay; details: 22Rv1-MDVR-ARE-luc cells, range of doses, 24 hours
Experimental: […]. Luciferase activity was measured and plotted as a percentage of control. Data represent the mean of three independent experiments with quadruplicate samples; bars, SEM. ***, p value <0.001 determined by ANOVA.
VCaP-MDVR and 22Rv1-MDVR stably expressing ARE-luciferase construct (VCaP-MDVR-ARE-luc and 22Rv1-MDVR-ARE-luc) were generated as described above in the Materials and Methods section. […].

22Rv1 cells [5] = assay: Caspase-Glo 3/7 activity assay, 22Rv1 cells
Experimental: as §1
Caspase 3/7 activity was measured using Caspase-Glo 3/7 substrates. Data represent mean of three independent experiments with quadruplicate samples; bars, SEM. ***, p value <0.001 determined by ANOVA.
[…]; Madison, Wis.).
. […] Staurosporine was used as a positive control for apoptosis induction (FIG. 10B).

SMILES: COc1ccc2c(c1)[nH]c1c(C)c(OS(=O)(=O)c3cccc4ccccc34)ccc12 [SH-I-125, 7-methoxy-1-methyl-9H-carbazol-2-yl naphthalene-1-sulfonate]
- cleaved caspase-3 and cleavage of PARP (22Rv1 cells [1]): presence of cleaved caspase-3 and accompanied by the cleavage of PARP
- AR and AR-V7 message (mRNA) levels (AR and AR-V7): did not affect the message levels
- AR nuclear localization (AR [2]): blocked AR nuclear localization
- PSA expression (AR [2]): inhibited PSA expression
- potency relative to natural-derived and synthetically-derived mahanine in preventing growth (22Rv1 cells [3]; MTT): ten-fold
- viability at 1 µM (22Rv1 cells [3]; Homo sapiens, 72 h, dose of 1 μM, read-out: cell viability, of control): 50%
- luciferase activity (AR activity) (AR [4]): retained its inhibitory effect
- caspase 3/7 activity (22Rv1 cells [5]; 3 days): induced caspase activity
- caspase-3 and -7 activities, time-course (22Rv1 cells [5]; SH-I-125 1 μM, after three days treatment): significantly induced
